# Laboratory results from US20220112187A1, “PYRAZOLOPYRIDINE AMINE COMPOUNDS FOR THE TREATMENT OF AUTOIMMUNE DISEASE” (Hoffmann-La Roche Inc., priority 2018, published 2022).
# Target: T1, human TLR8 (Homo sapiens, UniProt Q9NR97)
# T1 sequence (Q9NR97 27-1041): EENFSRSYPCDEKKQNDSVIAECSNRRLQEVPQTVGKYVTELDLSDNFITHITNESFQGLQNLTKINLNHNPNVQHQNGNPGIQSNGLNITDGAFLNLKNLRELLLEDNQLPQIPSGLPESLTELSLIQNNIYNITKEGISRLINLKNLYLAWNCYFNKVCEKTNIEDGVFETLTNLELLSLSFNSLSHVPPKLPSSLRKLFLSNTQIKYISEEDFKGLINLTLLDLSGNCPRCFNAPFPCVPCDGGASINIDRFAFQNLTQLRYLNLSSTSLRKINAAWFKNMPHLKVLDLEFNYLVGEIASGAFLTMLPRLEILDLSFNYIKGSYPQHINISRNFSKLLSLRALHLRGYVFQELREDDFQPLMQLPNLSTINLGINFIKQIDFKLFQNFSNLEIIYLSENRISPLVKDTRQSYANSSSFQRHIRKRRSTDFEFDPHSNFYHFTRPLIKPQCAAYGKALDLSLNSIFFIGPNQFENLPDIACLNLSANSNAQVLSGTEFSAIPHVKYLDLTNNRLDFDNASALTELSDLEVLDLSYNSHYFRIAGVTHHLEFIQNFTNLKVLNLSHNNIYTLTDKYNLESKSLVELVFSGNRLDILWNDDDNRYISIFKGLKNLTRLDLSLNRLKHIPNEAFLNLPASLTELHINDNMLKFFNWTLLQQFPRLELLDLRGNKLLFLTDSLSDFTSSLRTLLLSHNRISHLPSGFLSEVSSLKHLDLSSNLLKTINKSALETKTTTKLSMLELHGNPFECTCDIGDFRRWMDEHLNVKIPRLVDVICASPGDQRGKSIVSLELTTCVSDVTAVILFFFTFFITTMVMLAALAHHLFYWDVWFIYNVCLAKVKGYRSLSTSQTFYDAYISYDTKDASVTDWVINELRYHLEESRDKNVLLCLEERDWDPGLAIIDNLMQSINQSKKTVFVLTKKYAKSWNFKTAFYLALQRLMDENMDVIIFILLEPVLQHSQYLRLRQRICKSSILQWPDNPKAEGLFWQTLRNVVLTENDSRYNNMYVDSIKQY
# Experiment: HEK293-Blue-hTLR-8 cells assay (SEAP reporter, R848 stimulation)
# Type: cell-based
# Details: HEK293-Blue-hTLR8 cells, R848 ligand, 20 hrs incubation
# Text: A stable HEK293-Blue-hTLR-8 cell line was purchased from InvivoGen (Cat. #: hkb-htlr8, San Diego, Calif., USA). These cells were originally designed for studying the stimulation of human TLR8 by monitoring the activation of NF-κB. A SEAP (secreted embryonic alkaline phosphatase) reporter gene was placed under the control of the IFN-β minimal promoter fused to five NF-κB and AP-1-binding sites. The SEAP was induced by activating NF-κB and AP-1 via stimulating HEK-Blue hTLR8 cells with TLR8 ligands. Therefore the reporter expression was declined by TLR8 antagonist under the stimulation of a ligand, such as R848, for incubation of 20 hrs. The cell culture supernatant SEAP reporter activity was determined using QUANTI-Blue™ kit (Cat. #: rep-qb1, Invivogen, San Diego, Ca, USA) at a wavelength of 640 nm, a detection medium that turns purple or blue in the presence of alkaline phosphatase.
# HEK293-Blue-hTLR8 cells were incubated at a density of 250,000˜450,000 cells/mL in a volume of 170 μL in a 96-well plate in Dulbecco's Modified Eagle's medium (DMEM) containing 4.5 g/L glucose, 50 U/mL penicillin, […], […], 2 mM L-glutamine, 10% (v/v) heat-inactivated fetal bovine serum with addition of 20 μL test compound in a serial dilution in the presence of final DMSO at 1% and 10 μL of 60 uM R848 in above DMEM, perform incubation under 37° C. in a CO2 incubator for 20 hrs. Then 20 μL of the supernatant from each well was incubated with 180 μL Quanti-blue substrate solution at 37° C. for 2 hrs and the absorbance was read at 620˜655 nm using a spectrophotometer. The signalling pathway that TLR8 activation leads to downstream NF-κB activation has been widely accepted, and therefore similar reporter assay was modified for evaluating TLR8 antagonist.
row,IC50 [nM],SMILES
1,40,"CC1CC(N)CCN1C[C@H]1CN(c2ccc(C#N)n3nccc23)C[C@@H](C)O1 (stereo partly drawn) [Example 51, 4-[(2S,6R)-2-[(4-amino-2-methyl-1-piperidyl)methyl]-6-methyl-morpholin-4-yl]pyrazolo[1,5-a]pyridine-7-carbonitrile]"
2,42,"C[C@@H]1CN(c2ccc(C#N)n3nccc23)C[C@H](CN2CCC(N3CCCC3)CC2)O1 [Example 54, 4-[(2R,6S)-2-methyl-6-[(4-pyrrolidin-1-yl-1-piperidyl)methyl]morpholin-4-yl]pyrazolo[1,5-a]pyridine-7-carbonitrile]"
3,39,"C[C@@H]1CN(c2ccc(C#N)n3nccc23)C[C@H](CN2CC[C@H](N)[C@H](C)C2)O1 [Example 74, 4-[(2S,6R)-2-[[(3R,4S)-4-amino-3-methyl-1-piperidyl]methyl]-6-methyl-morpholin-4-yl]pyrazolo[1,5-a]pyridine-7-carbonitrile]"
4,620,"C[C@@H]1CN(c2ccc(C#N)n3nccc23)C[C@H](CN2CCC3(CCNCC3)CC2)O1 [Example 3, 4-[(2S,6R)-2-(3,9-diazaspiro[5.5]undecan-3-ylmethyl)-6-methyl-morpholin-4-yl]pyrazolo[1,5-a]pyridine-7-carbonitrile]"
5,250,"C[C@@H]1CN(c2ccc(C#N)n3nccc23)C[C@H](CN2CCC3(CCNC3)CC2)O1 [Example 19, 4-[(2S,6R)-2-(2,8-diazaspiro[4.5]decan-8-ylmethyl)-6-methyl-morpholin-4-yl]pyrazolo[1,5-a]pyridine-7-carbonitrile]"
6,65,"C[C@@H]1CN(c2ccc(C#N)n3nccc23)C[C@H](CN2CCC(N)C(F)(F)C2)O1 (stereo partly drawn) [Example 34, 4-[(2S,6R)-2-[(4-amino-3,3-difluoro-1-piperidyl)methyl]-6-methyl-morpholin-4-yl]pyrazolo[1,5-a]pyridine-7-carbonitrile]"
7,320,"C[C@@H]1CN(c2ccc(C#N)n3nccc23)C[C@H](CNC2CCN(C)CC2)O1 [Example 7, 4-[(2R,6S)-2-methyl-6-[[(1-methyl-4-piperidyl)amino]methyl]morpholin-4-yl]pyrazolo[1,5-a]pyridine-7-carbonitrile]"
8,28,"C[C@@H]1CN(c2ccc(C#N)n3nccc23)C[C@H](CN2CCC(N3CCN(C)CC3)CC2)O1 [Example 1, 4-[(2R,6S)-2-methyl-6-[[4-(4-methylpiperazin-1-yl)-1-piperidyl]methyl]morpholin-4-yl]pyrazolo[1,5-a]pyridine-7-carbonitrile]"
9,47,"C[C@@H]1CN(c2ccc(C#N)n3nccc23)C[C@H](CN2CCC(N)(c3ccccc3)CC2)O1 [Example 73, 4-[(2S,6R)-2-[(4-amino-4-phenyl-1-piperidyl)methyl]-6-methyl-morpholin-4-yl]pyrazolo[1,5-a]pyridine-7-carbonitrile]"
10,29,"C[C@@H]1CN(c2ccc(C#N)n3nccc23)C[C@H](CN2CCC3(CCCN3)CC2)O1 [Example 53, 4-[(2S,6R)-2-(1,8-diazaspiro[4.5]decan-8-ylmethyl)-6-methyl-morpholin-4-yl]pyrazolo[1,5-a]pyridine-7-carbonitrile]"
11,130,"C[C@@H]1CN(c2ccc(C#N)n3nccc23)C[C@H](CN2CCN(C3CCNCC3)CC2Cc2ccccc2)O1 (stereo partly drawn) [Example 77, 4-[(2S,6R)-2-[[2-benzyl-4-(4-piperidyl)piperazin-1-yl]methyl]-6-methyl-morpholin-4-yl]pyrazolo[1,5-a]pyridine-7-carbonitrile]"
12,280,"C[C@@H]1CN(c2ccc(C#N)n3nccc23)C[C@H](CN2CCC(CN)CC2)O1 [Example 12, 4-[(2S,6R)-2-[[4-(aminomethyl)-1-piperidyl]methyl]-6-methyl-morpholin-4-yl]pyrazolo[1,5-a]pyridine-7-carbonitrile]"
13,140,"C[C@@H]1CN(c2ccc(C#N)n3nccc23)C[C@H](CN2CCNC3(CC3)C2)O1 [Example 40, 4-[(2S,6R)-2-(4,7-diazaspiro[2.5]octan-7-ylmethyl)-6-methyl-morpholin-4-yl]pyrazolo[1,5-a]pyridine-7-carbonitrile]"
14,300,"C[C@@H]1CN(c2ccc(C#N)n3nccc23)C[C@H](CN2CCCC3CNCC32)O1 (stereo partly drawn) [Example 61, 4-[(2S,6R)-2-(2,3,4,4a,5,6,7,7a-octahydropyrrolo[3,4-b]pyridin-1-ylmethyl)-6-methyl-morpholin-4-yl]pyrazolo[1,5-a]pyridine-7-carbonitrile]"
15,96,"C[C@@H]1CN(c2ccc(C#N)n3nccc23)C[C@H](CN2CCC3(CC2)CNCCO3)O1 [Example 60, 4-[(2R,6S)-2-methyl-6-(1-oxa-4,9-diazaspiro[5.5]undecan-9-ylmethyl)morpholin-4-yl]pyrazolo[1,5-a]pyridine-7-carbonitrile]"
16,44,"C[C@@H]1CN(c2ccc(C#N)n3nccc23)C[C@H](CN2CCC[C@@H]3NCCC32)O1 (stereo partly drawn) [Example 63, 4-[(2R,6S)-2-methyl-6-[[cis-(3aS,7aS)-1,2,3,3a,5,6,7,7a-octahydropyrrolo[3,2-b]pyridin-4-yl]methyl]morpholin-4-yl]pyrazolo[1,5-a]pyridine-7-carbonitrile]"
17,150,"C[C@@H]1CN(c2ccc(C#N)n3nccc23)C[C@H](CN2CC3CCNCC3C2)O1 (stereo partly drawn) [Example 49, 4-[(2S,6R)-2-(1,3,3a,4,5,6,7,7a-octahydropyrrolo[3,4-c]pyridin-2-ylmethyl)-6-methyl-morpholin-4-yl]pyrazolo[1,5-a]pyridine-7-carbonitrile]"
18,150,"C[C@@H]1CN(c2ccc(C#N)n3nccc23)C[C@H](CN2CC3(CCCNCC3)C2)O1 [Example 46, 4-[(2S,6R)-2-(2,8-diazaspiro[3.6]decan-2-ylmethyl)-6-methyl-morpholin-4-yl]pyrazolo[1,5-a]pyridine-7-carbonitrile]"
19,380,"C[C@@H]1CN(c2ccc(C#N)n3nccc23)C[C@H](CN2CCN(C(=O)CN)CC2)O1 [Example 14, 4-[(2S,6R)-2-[[4-(2-aminoacetyl)piperazin-1-yl]methyl]-6-methyl-morpholin-4-yl]pyrazolo[1,5-a]pyridine-7-carbonitrile]"

row,SMILES,IC50 [nM]
1,"C[C@@H]1CN(c2ccc(C#N)n3nccc23)C[C@H](CN2C3CCCC2CC(N)C3)O1 (stereo partly drawn) [Example 66, Exo-4-[(2S,6R)-2-[(3-amino-9-azabicyclo[3.3.1]nonan-9-yl)methyl]-6-methyl-morpholin-4-yl]pyrazolo[1,5-a]pyridine-7-carbonitrile]",140
2,"C[C@@H]1CN(c2ccc(C#N)n3nccc23)C[C@H](CN2C3CCCC2CC(N)C3)O1 (stereo partly drawn) [Example 65, Endo-4-[(2S,6R)-2-[(3-amino-9-azabicyclo[3.3.1]nonan-9-yl)methyl]-6-methyl-morpholin-4-yl]pyrazolo[1,5-a]pyridine-7-carbonitrile]",64
3,"C[C@@H]1CN(c2ccc(C#N)n3nccc23)C[C@H](CN2C3CCC2CC(N)C3)O1 (stereo partly drawn) [Example 37, 4-[(2S,6R)-2-[(3-amino-8-azabicyclo[3.2.1]octan-8-yl)methyl]-6-methyl-morpholin-4-yl]pyrazolo[1,5-a]pyridine-7-carbonitrile]",45
4,"C[C@@H]1CN(c2ccc(C#N)n3nccc23)C[C@H](CN2C3CCC2CNC3)O1 [Example 43, 4-[(2S,6R)-2-(3,8-diazabicyclo[3.2.1]octan-8-ylmethyl)-6-methyl-morpholin-4-yl]pyrazolo[1,5-a]pyridine-7-carbonitrile]",31
